Source: US9403806B1, “Cognition enhancing compounds and compositions, methods of making, and methods of treating” (NeuroSolis, Inc., priority 2010, dated 2016)

Experiments:
[1] = tested on: healthy male volunteer human subjects; test: Monitoring of cholinergic side effects in healthy volunteers; assay type: in vivo; conditions: 6 subjects
Method: (§1) A single 5 mg capsule or 5×0.2 mg capsules (1 mg total dose) were administered orally to healthy male volunteer human subjects with 125 ml of water. Six such subjects receiving the 5 mg dose, and a different 6 subjects received the 1 mg dose.
Subjects were monitored, among other things, for typical signs of muscarinic cholinergic action, such as increased salivation, lachrimation and diaphoresis.

[2] = Serum pharmacokinetics of immediate release capsules in healthy volunteers; assay type: in vivo, human; conditions: 5 mg dose cohort, 6 subjects
Method: The hydrochloride salt of MCD-386 (“MCD-386 HCl”) was formulated with the following excipients and loaded into #3 hard gelatin capsules (5 mg dose) or #2 hard gelatin capsules (0.2 mg dose).
as §1
Venous blood samples were drawn at various intervals after dosing from each subject into standard tubes for bioanalytical and pharmacokinetic analysis. The blood was allowed to clot, and the serum separated, using common clinical laboratory techniques. Serum samples were stored at −20 deg C. until used for analysis.
MCD-386 HCl, which exists in serum principally as the protonated form of MCD-386, was assayed in clinical serum samples as follows. […] The MS/MS transitions monitored were 181.1 m/z to 111.0 m/z for MCD-386 HCl and 186.1 m/z to 111.1 m/z for the internal standard, D5-MCD-386 HCl. […] The lower limit of quantitation (LLOQ) was 0.100 ng MCD-386 HCl per mL of serum. MCD-386 HCl concentrations are expressed as free base. […]
The bioanalytical results were analyzed using Win Nonlin software and common pharmacokinetic methods known to those skilled in the art.

[3] = Plasma concentration in rats, iontophoresis patch versus oral gavage; assay type: in vivo, Long Evans Hooded rat; conditions: rat
Source text: Two patches were made up, consisting (in order from the outer layer to the skin contacting surface, respectively): adhesive tape (Transpore, 27 mm wide, 3M), circular stainless steel electrodes (22 mm dia) with a central hole for a stainless steel machine screw to which the electrode wire was attached, and 2 layers of 3MM CHR filter paper (Cat #3030-861, Whatman International, Ltd).
The mid-dorsal area of a Long Evans Hooded rat (approximate weight, 320 grams), surgically prepared with a jugular vein catheter (Charles River), was shaved and the skin was then cleaned using an Electrode Prep Pad (Professional Disposables, Inc, Cat #B59800). […]
Blood (400 μl) was withdrawn from the catheters in each rat every 30 minutes, transferred to 1.5 ml centrifuge tubes containing heparin (15 units/tube), and the plasma was separated by centrifugation from the cellular components. The plasma samples were maintained at 4 deg C. until analyzed. […]
The ultra-filtrates were subjected to reverse-phase liquid chromatography using a 150×2.1 mm Agilent C8 reverse-phase column on a Shimadzu Prominence LC, eluting the MCD-386 with an isocratic flow of 2% acetonitrile+0.1% formic acid. The concentration of MCD-386 in the column effluent was measured using an Applied Biosystems API-3200 triple quadrupole mass spectrometer equipped with a Turbo V source (electrospray sample injection) system. […]

bioavailability by transdermal delivery versus oral administration [3]: up to three times higher
Plasma Concentration ([3]; iontophoresis patch, dose 3.2 mg/kg, 30 minutes): 848 nM
SMILES: CCc1noc(C2CN=CNC2)n1 (centres unmarked) [MCD-386, 3-ethyl-5-(1,4,5,6-tetrahydropyrimidin-5-yl)-1,2,4-oxadiazole]
observable cholinergic side effects ([1]; 1 mg total oral dose cohort): none of the subjects in the 1 mg total dose cohort experienced any observable cholinergic side effects
observable cholinergic side effects ([1]; 5 mg oral dose cohort): four subjects showed signs of muscarinic cholinergic activity
main metabolite in serum samples [2]: identified in the serum samples of five out of six subjects
